Data taken from US20250213701A1, “MEDICAMENT FOR TREATING HUMAN TUMOR BASED ON ERF3A-TARGETING PROTEOLYSIS MECHANISM” (SUZHOU DEGEN BIO-MEDICAL CO., LTD., priority 2022, published 2025).
pIC50: −log10 of the molar value.

Assays:
Type in all cases: cell-based, human
[1] = system: PC-3 cells; experiment: Anti-proliferative toxicity against prostate cancer cell line PC-3 (CCK8); details: Homo sapiens, 72 h, 3 days
Description: (§1) Example 82: Detection of Anti-Proliferative Toxicity Against Prostate Cancer Cell Lines Vcap, 22Rv1, and PC-3
PC-3 cells (purchased from the Cell Bank of the Chinese Academy of Sciences, Cat. No. SCSP-532) were subcultured in a culture medium (F12K medium+1% penicillin-streptomycin dual-antibiotic solution+10% fetal bovine serum) in an incubator at 5% carbon dioxide and 37° C.
PC-3 cells were seeded at 4000 cells/well (90 μL) on a 96-well plate and cultured for 24 h.
(§2) 10 mM compound stock solutions were prepared in DMSO.
(§3) For 22Rv1 cells and PC-3 cells, the compound stock solution was diluted with DMSO to give DMSO solutions 11-19 at concentrations of 0 μM, 500 μM, 100 μM, 20 μM, 4 μM, 0.8 μM, 0.16 μM, 0.032 μM, 0.0064 μM.
For PC-3 cells, 2 μL of each of the above solutions 11-19 was added to 98 μL of PC-3 medium to give mixed solutions 39-47 of the compound and the medium.
(§4) For 22Rv1 and PC-3 cells, 10 μL of each of the above solutions 30-38 or 39-47 was added to the above cell seed solution to give a total volume of 100 μL (90 μL+10 μL), where the concentrations of the compound in wells were 0 μM, 1.0 μM, 0.2 μM, 0.04 μM, 0.008 μM, 0.0016 μM, 0.00032 μM, 0.00006 μM, and 0.00001 μM. All concentrations were in triplicate.
(§5) After the above-treated cells were cultured for 3 days, 10 μL of the CCK8 solution (DOJINDO, Cat. No. PF725) was added to each well. The plate was incubated in an incubator at 37° C. for 1-4 h and then detected on a microplate reader for the reading at 450 nm.

[2] = system: VCaP cells; experiment: Anti-proliferative toxicity against prostate cancer cell line Vcap (CCK8); details: Homo sapiens, 72 h, 3 days, CCK8
Description: as §1
(§6) Vcap cells (purchased from the Cell Bank of the Chinese Academy of Sciences, Cat. No. SCSP-5034) were subcultured in a culture medium (DMEM medium+1% penicillin-streptomycin dual-antibiotic solution+10% fetal bovine serum) in an incubator at 5% carbon dioxide and 37° C. 22Rv1 cells (purchased from the Cell Bank of the Chinese Academy of Sciences, Cat. No. TCHu100) were subcultured in a culture medium (RPMI-1640 medium+1% penicillin-streptomycin dual-antibiotic solution+10% fetal bovine serum) in an incubator at 5% carbon dioxide and 37° C.
VCap cells were seeded at 20000 cells/well (90 μL) on a 96-well plate and cultured for 72 h. The original medium was removed, and a new medium of 90 μL was added.
as §2
For VCap cells, the compound stock solution was diluted with DMSO to give DMSO solutions 1-10 at concentrations of 0 μM, 80 μM, 16 μM, 3.2 μM, 1.5 μM, 0.5 μM, 0.15 μM, 0.05 μM, 0.025 μM, and 0.0005 μM.
For Vcap cells, 2 μL of each of the above solutions 1-10 was added to 98 μL of Vcap medium to give mixed solutions 20-29 of the compound and the medium.
For Vcap cells, 10 μL of each of the above solutions 20-29 was added to the above cell seed solution to give a total volume of 100 μL (90 μL+10 μL), where the concentrations of the compound in wells were 0 μM, 0.16 μM, 0.032 μM, 0.006 μM, 0.003 μM, 0.001 μM, 0.0003 μM, 0.0001 μM, 0.00005 μM, and 0.00001 μM. All concentrations were in triplicate.
as §5

[3] = system: 22Rv1 cells; experiment: Anti-proliferative toxicity against prostate cancer cell line 22Rv1 (CCK8); details: Homo sapiens, 72 h, 3 days, CCK8
Description: as §1, §6
22Rv1 cells were seeded at 5000 cells/well (90 μL) on a 96-well plate and cultured for 48 h.
as §2, §3
For 22Rv1 cells, 2 μL of each of the above solutions 11-19 was added to 98 μL of 22Rv1 medium to give mixed solutions 30-38 of the compound and the medium.
as §4, §5

Row | SMILES | pIC50 [1] | pIC50 [2] | pIC50 [3]
1 | C[C@]12C=CC(=O)N[C@@H]1CC[C@@H]1[C@@H]2CC[C@]2(C)[C@@H](C(=O)Nc3cccc(OCCCNc4ccc5c(c4)C(=O)N(C4CCC(=O)NC4=O)C5=O)c3)CC[C@@H]12 (stereo partly drawn) [C30, N-(3-((3-((5-(2-(3-(2,6-dioxopiperidine))-isoindole-1,3-dione))amino)propyl)oxy)phenyl)-3-oxo-4-aza-5α-androst-1-ene-17β-carboxamide] | < 6.00 | < 6.00 | < 6.00
2 | C[C@]12C=CC(=O)N[C@@H]1CC[C@@H]1[C@@H]2CC[C@]2(C)[C@@H](C(=O)Nc3cccc(OCCCCNc4cccc5c4C(=O)N(C4CCC(=O)NC4=O)C5=O)c3)CC[C@@H]12 (stereo partly drawn) [C31, N-(3-((4-((4-(2-(3-(2,6-dioxopiperidine))-isoindole-1,3-dione))amino)butyl)oxy)phenyl)-3-oxo-4-aza-5α-androst-1-ene-17β-carboxamide] | < 6.00 | < 6.00 | < 6.00
3 | C[C@]12C=CC(=O)N[C@@H]1CC[C@@H]1[C@@H]2CC[C@]2(C)[C@@H](C(=O)Nc3cccc(OCCCCNc4ccc5c(c4)C(=O)N(C4CCC(=O)NC4=O)C5=O)c3)CC[C@@H]12 (stereo partly drawn) [C32, N-(3-((4-((5-(2-(3-(2,6-dioxopiperidine))-isoindole-1,3-dione))amino)butyl)oxy)phenyl)-3-oxo-4-aza-5α-androst-1-ene-17β-carboxamide] | < 6.00 | < 6.00 | < 6.00
4 | C[C@]12C=CC(=O)N[C@@H]1CC[C@@H]1[C@@H]2CC[C@]2(C)[C@@H](C(=O)Nc3cccc(OCCCCCNc4cccc5c4C(=O)N(C4CCC(=O)NC4=O)C5=O)c3)CC[C@@H]12 (stereo partly drawn) [C33, N-(3-((5-((4-(2-(3-(2,6-dioxopiperidine))-isoindole-1,3-dione))amino)pentyl)oxy)phenyl)-3-oxo-4-aza-5α-androst-1-ene-171β-carboxamide] | < 6.00 | < 6.00 | < 6.00
5 | C[C@]12C=CC(=O)N[C@@H]1CC[C@@H]1[C@@H]2CC[C@]2(C)[C@@H](C(=O)Nc3cccc(OCCCCCCNc4cccc5c4C(=O)N(C4CCC(=O)NC4=O)C5=O)c3)CC[C@@H]12 (stereo partly drawn) [C35, N-(3-((6-((4-(2-(3-(2,6-dioxopiperidine))-isoindole-1,3-dione))amino)hexyl)oxy)phenyl)-3-oxo-4-aza-5α-androst-1-ene-17β-carboxamide] | < 6.00 | < 6.00 | < 6.00
6 | C[C@]12C=CC(=O)N[C@@H]1CC[C@@H]1[C@@H]2CC[C@]2(C)[C@@H](C(=O)Nc3cccc(OCCCCCCNc4ccc5c(c4)C(=O)N(C4CCC(=O)NC4=O)C5=O)c3)CC[C@@H]12 (stereo partly drawn) [C36, N-(3-((6-((5-(2-(3-(2,6-dioxopiperidine))-isoindole-1,3-dione))amino)hexyl)oxy)phenyl)-3-oxo-4-aza-5α-androst-1-ene-17β-carboxamide] | < 6.00 | < 6.00 | < 6.00
7 | C[C@]12C=CC(=O)N[C@@H]1CC[C@@H]1[C@@H]2CC[C@]2(C)[C@@H](C(=O)Nc3cccc(OCCCCCCCNc4cccc5c4C(=O)N(C4CCC(=O)NC4=O)C5=O)c3)CC[C@@H]12 (stereo partly drawn) [C37, N-(3-((7-((4-(2-(3-(2,6-dioxopiperidine))-isoindole-1,3-dione))amino)heptyl)oxy)phenyl)-3-oxo-4-aza-5α-androst-1-ene-17β-carboxamide] | < 6.00 | < 6.00 | < 6.00
8 | C[C@]12C=CC(=O)N[C@@H]1CC[C@@H]1[C@@H]2CC[C@]2(C)[C@@H](C(=O)Nc3cccc(OCCCCCCCCNc4cccc5c4C(=O)N(C4CCC(=O)NC4=O)C5=O)c3)CC[C@@H]12 (stereo partly drawn) [C39, N-(3-((8-((4-(2-(3-(2,6-dioxopiperidine))-isoindole-1,3-dione))amino)octyl)oxy)phenyl)-3-oxo-4-aza-5α-androst-1-ene-17β-carboxamide] | < 6.00 | < 6.00 | < 6.00
9 | C[C@]12C=CC(=O)N[C@@H]1CC[C@@H]1[C@@H]2CC[C@]2(C)[C@@H](C(=O)Nc3cccc(OCCCCCCCCNc4ccc5c(c4)C(=O)N(C4CCC(=O)NC4=O)C5=O)c3)CC[C@@H]12 (stereo partly drawn) [C40, N-(3-((8-((5-(2-(3-(2,6-dioxopiperidine))-isoindole-1,3-dione))amino)octyl)oxy)phenyl)-3-oxo-4-aza-5α-androst-1-ene-17β-carboxamide] | < 6.00 | 6.00 to 8.00 | < 6.00
10 | C[C@]12C=CC(=O)N[C@@H]1CC[C@@H]1[C@@H]2CC[C@]2(C)[C@@H](C(=O)Nc3cccc(OCCCNc4cccc5c4CN(C4CCC(=O)NC4=O)C5=O)c3)CC[C@@H]12 (stereo partly drawn) [C41, N-(3-((3-((4-(2-(3-(2,6-dioxopiperidine))-1-oxo-2,3-dihydro-1H-isoindol))amino)propyl)oxy)phenyl)-3-oxo-4-aza-5α-androst-1-ene-17β-carboxamide] | < 6.00 | 8.00 to 10.00 | 8.00 to 10.00
11 | C[C@]12C=CC(=O)N[C@@H]1CC[C@@H]1[C@@H]2CC[C@]2(C)[C@@H](C(=O)Nc3cccc(OCC4CCN(c5cccc6c5C(=O)N(C5CCC(=O)NC5=O)C6=O)CC4)c3)CC[C@@H]12 (stereo partly drawn) [C42, N-(3-((4-methyl-1-(4-(2-(3-(2,6-dioxopiperidine))-isoindole-1,3-dione))-piperidinyl)oxy)phenyl)-3-oxo-4-aza-5α-androst-1-ene-17β-carboxamide] | < 6.00 | < 6.00 | < 6.00
12 | C[C@]12C=CC(=O)N[C@@H]1CC[C@@H]1[C@@H]2CC[C@]2(C)[C@@H](C(=O)Nc3cccc(N4CCC(CN5CCN(c6cccc7c6C(=O)N(C6CCC(=O)NC6=O)C7=O)CC5)CC4)c3)CC[C@@H]12 (stereo partly drawn) [C44, 1-(4-(1-(3-(3-oxo-4-aza-5α-androst-1-ene-17β-carboxamido)phenyl)piperidine))methyl-4-(4-(2-(3-(2,6-dioxopiperidine))-isoindole-1,3-dione))piperazine] | < 6.00 | < 6.00 | < 6.00
13 | C[C@]12C=CC(=O)N[C@@H]1CC[C@@H]1[C@@H]2CC[C@]2(C)[C@@H](C(=O)Nc3cccc(N4CCC(CN5CCN(c6ccc7c(c6)C(=O)N(C6CCC(=O)NC6=O)C7=O)CC5)CC4)c3)CC[C@@H]12 (stereo partly drawn) [C45, 1-(4-(1-(3-(3-oxo-4-aza-5α-androst-1-ene-17β-carboxamido)phenyl)piperidine)methyl)-4-(5-(2-(3-(2,6-dioxopiperidine))-isoindole-1,3-dione))piperazine] | < 6.00 | < 6.00 | < 6.00
14 | C[C@]12C=CC(=O)N[C@@H]1CC[C@@H]1[C@@H]2CC[C@]2(C)[C@@H](C(=O)Nc3cccc(OCCCOc4cccc5c4C(=O)N(C4CCC(=O)NC4=O)C5=O)c3)CC[C@@H]12 (stereo partly drawn) [C46, N-(3-((3-((4-(2-(3-(2,6-dioxopiperidine))-isoindole-1,3-dione))oxy)propyl)oxy)phenyl)-3-oxo-4-aza-5α-androst-1-ene-17β-carboxamide] | < 6.00 | 8.00 to 10.00 | 8.00 to 10.00
15 | C[C@]12C=CC(=O)N[C@@H]1CC[C@@H]1[C@@H]2CC[C@]2(C)[C@@H](C(=O)Nc3ccc(OCCNc4ccc5c(c4)C(=O)N(C4CCC(=O)NC4=O)C5=O)nc3)CC[C@@H]12 (stereo partly drawn) [C47, N-(5-(2-((2-((5-(2-(3-(2,6-dioxopiperidine))-isoindole-1,3-dione))amino)ethyl)oxy)pyridine))-3-oxo-4-aza-5α-androst-1-ene-17β-carboxamide] | < 6.00 | 6.00 to 8.00 | 6.00 to 8.00
